Assays:
Format in all cases: biochemical
B-Raf V600E = B-Raf V600E (Homo sapiens, UniProt P15056, V600E); assay: Kinase activity assay, B-Raf V600E; conditions: read-out: activity toward kinase B-Raf V600E, IC50
B-Raf = B-Raf (Homo sapiens, UniProt P15056); assay: Kinase activity assay, B-Raf; conditions: read-out: activity toward kinase B-Raf, IC50
Fms = Fms (Homo sapiens, UniProt P07333); assay: Kinase activity assay, Fms; conditions: read-out: activity toward kinase Fms, IC50
C-Raf = C-Raf (Homo sapiens, UniProt P04049); assay: Kinase activity assay, C-Raf; conditions: read-out: activity toward kinase C-Raf, IC50
Chain of C-Raf (P04049 whole entry): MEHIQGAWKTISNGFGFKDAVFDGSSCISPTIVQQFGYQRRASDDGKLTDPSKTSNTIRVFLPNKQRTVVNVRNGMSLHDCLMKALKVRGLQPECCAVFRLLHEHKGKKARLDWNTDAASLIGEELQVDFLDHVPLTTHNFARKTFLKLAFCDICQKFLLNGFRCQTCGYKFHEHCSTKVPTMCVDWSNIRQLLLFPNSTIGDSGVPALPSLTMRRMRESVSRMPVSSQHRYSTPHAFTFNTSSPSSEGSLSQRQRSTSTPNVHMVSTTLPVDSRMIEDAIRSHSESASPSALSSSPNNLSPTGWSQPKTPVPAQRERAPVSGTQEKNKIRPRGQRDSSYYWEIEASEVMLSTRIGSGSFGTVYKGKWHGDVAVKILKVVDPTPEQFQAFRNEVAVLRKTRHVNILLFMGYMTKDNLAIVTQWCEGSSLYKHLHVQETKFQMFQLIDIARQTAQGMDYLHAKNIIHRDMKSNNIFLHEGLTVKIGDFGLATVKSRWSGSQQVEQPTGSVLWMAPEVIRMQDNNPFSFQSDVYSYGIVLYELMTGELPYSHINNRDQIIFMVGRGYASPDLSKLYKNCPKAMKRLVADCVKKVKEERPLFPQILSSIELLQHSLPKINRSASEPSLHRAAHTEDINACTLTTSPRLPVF

Chain of B-Raf (P15056 whole entry): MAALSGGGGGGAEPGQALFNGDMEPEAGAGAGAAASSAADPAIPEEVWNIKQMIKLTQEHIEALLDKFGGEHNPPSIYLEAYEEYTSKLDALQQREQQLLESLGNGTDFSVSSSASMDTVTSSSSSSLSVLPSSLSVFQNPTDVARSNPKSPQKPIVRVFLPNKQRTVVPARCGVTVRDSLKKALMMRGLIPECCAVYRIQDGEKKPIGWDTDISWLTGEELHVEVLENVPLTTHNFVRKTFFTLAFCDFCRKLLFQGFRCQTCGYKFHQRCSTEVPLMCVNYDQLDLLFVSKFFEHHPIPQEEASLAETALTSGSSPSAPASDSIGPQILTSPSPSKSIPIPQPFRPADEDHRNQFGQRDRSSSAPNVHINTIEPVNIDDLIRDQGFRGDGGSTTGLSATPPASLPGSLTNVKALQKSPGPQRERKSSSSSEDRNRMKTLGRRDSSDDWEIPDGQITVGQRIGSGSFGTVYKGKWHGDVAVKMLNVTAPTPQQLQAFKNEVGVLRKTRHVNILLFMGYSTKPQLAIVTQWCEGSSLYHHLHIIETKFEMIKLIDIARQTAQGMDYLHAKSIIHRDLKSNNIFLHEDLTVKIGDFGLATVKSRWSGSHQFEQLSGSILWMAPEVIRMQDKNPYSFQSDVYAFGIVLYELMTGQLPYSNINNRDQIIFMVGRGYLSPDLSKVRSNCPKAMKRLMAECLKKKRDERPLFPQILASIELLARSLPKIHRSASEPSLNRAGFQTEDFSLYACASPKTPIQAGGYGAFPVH
Chain of Fms (P07333 20-972): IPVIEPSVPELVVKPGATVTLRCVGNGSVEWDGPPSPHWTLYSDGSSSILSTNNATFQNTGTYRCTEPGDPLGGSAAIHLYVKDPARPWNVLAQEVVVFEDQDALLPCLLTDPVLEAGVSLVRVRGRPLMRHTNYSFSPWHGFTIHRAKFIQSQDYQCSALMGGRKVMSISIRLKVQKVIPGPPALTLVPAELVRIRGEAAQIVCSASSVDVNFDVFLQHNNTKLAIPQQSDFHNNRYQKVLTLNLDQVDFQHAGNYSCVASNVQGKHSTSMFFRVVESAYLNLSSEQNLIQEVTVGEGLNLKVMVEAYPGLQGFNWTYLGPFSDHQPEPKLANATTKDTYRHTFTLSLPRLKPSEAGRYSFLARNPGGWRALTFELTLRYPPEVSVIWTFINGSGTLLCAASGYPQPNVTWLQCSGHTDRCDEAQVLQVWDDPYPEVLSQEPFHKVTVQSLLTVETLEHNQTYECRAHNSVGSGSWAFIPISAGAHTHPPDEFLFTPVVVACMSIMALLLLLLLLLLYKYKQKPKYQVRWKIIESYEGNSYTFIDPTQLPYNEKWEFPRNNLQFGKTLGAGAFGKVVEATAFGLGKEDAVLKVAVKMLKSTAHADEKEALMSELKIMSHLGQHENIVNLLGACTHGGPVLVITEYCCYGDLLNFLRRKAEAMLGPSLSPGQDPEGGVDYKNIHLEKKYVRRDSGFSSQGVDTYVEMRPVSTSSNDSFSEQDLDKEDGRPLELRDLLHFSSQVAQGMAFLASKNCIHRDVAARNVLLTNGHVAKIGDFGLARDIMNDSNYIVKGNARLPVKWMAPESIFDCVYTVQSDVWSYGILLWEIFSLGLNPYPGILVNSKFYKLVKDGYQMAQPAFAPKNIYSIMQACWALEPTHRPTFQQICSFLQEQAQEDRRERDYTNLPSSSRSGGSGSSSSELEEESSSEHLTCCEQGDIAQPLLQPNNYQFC
Chain of B-Raf V600E (P15056 whole entry V600E): as the sequence (P15056 whole entry) above, with V600E counted along it

IC50 (B-Raf V600E): ≤ 10 µM
IC50 (B-Raf): ≤ 10 µM
IC50 (Fms): ≤ 10 µM
IC50 (C-Raf): ≤ 10 µM
Compound: O=C(c1c(F)ccc(NS(=O)(=O)c2cccnc2)c1F)c1c[nH]c2ncncc12 [Compound P-0066, Pyridine-3-sulfonic acid [2,4-difluoro-3-(7H-pyrrolo[2,3-d]pyrimidine-5-carbonyl)-phenyl]-amide]
